Data from patent publication US20120196927A1, “PROPHYLACTIC AND/OR THERAPEUTIC AGENT FOR METABOLIC SYNDROME” (priority 2009, published 2012).

What was measured:
C57BL/6J-ob/ob mice [1] = assay: Diabetes model mice: fasting blood glucose level; assay type: in vivo, mouse; conditions: nobiletin 200 mg/kg/day, Pioglitazone 30 mg/kg/day p.o.
Experimental: Two weeks or 5 weeks from the beginning of the administration, the fasting blood glucose was measured (n=10). The measurement of the blood glucose level was carried out as the same as that of the example 1.

C57BL/6J-ob/ob mice [2] = conditions: nobiletin 200 mg/kg/day, Pioglitazone 30 mg/kg/day, 5 weeks
Description: Diabetes model mice and the experimental system were as follows. As the diabetes model mice, 7 week age of male C57BL/6J-ob/ob (hereinafter, it was referred to as “ob/ob”) were purchased from Charles River Laboratories Japan Inc., and used as 10 mice/group.
For the negative control group (from FIGS. 5 to 10, it was shown as Vehicle; hereinafter, it is referred to as “solvent administration group”), 0.3% of CMC aqueous solution was administrated orally for 5 weeks in everyday at the dosage of 0.01 mL/g body weight. For the positive control group (in FIGS. 5 to 10 and hereinafter, it was referred to as “P30 administrated group”), 3 mg of Pioglitazone was suspended in 0.3% CMC aqueous solution so as to be orally administrated at the dosage of 0.01 mL/g body weight for 5 weeks in everyday (dosage: 30 mg/kg body weight/day). […]
The blood insulin level was measured as described in below. […] As lipids in plasma, concentrations of neutral fat (TG) and total cholesterol (T-CHO) were measured. Plasma insulin level was measured by using rebis insulin mouse (type U) (Shibayagi Co. Ltd.) based on the enzyme-immunoassay.

[3] = test system: adipose cells of the white adipose tissue; assay: Nobiletin, obesity-induced mice: size of the adipose cells; assay type: in vivo, mouse; conditions: epididymis adipose tissue sections
Description: After the completion of the experiment, the adipose tissue of mice epididymis was excised to prepare sections to stain by using both of hematoxylin and eosin (n=9). These sections were observes under the microscope with 200-fold magnification to compare cell seizes in the field of photomicroscope vision.

[4] = test system: gluconeogenesis-related genes PEPCK, G6Pase; assay: Diabetes model mice: mRNA expression in the liver (real time RT-PCR); assay type: in vivo, mouse; conditions: ob/ob mice, Vehicle = 1.00, nobiletin 200 mg/kg/day, Pioglitazone 30 mg/kg/day, 5 weeks
Experimental: The effects by nobiletin ingestion to the mRNA expression in the white adipose tissue and the liver were measured (n=10).
After the termination of the administration period for 5 weeks, mRNA expression levels of respective genes shown in the table 10 were determined by using real time RT-PCR method. The real time RT-PCR was carried out according to an operation manual provided by ISOGEN (NIPPON GENE CO., LTD); RNA was extracted from the white adipose tissue and the liver. Next, cDNA was prepared from using 1 μg of RNA by using Reverse Transcription System kit (Promega Corp., USA). Next, suitable primers for the above-mentioned genes were prepared according to the operation manual provided by FastStart universal SYBR (a registered trademark) Greenmaster PCR KIT agent (Roche Diagnostics K. K., Germany).
Real time PCR system 7700HT (Applied Biosytems, USA) was used for the determination to carry out the real time PCR by using the cDNAs as templates. Each reaction conditions were set according to the manual of the PCR KIT. Quantitative analysis of the RNA amount was carried out based on comparative Ct method by using glyceraldehyde 3-phosphate dehydrogenase (GAPDH) as the standard reference.

male C57BL/6 mice [5] = assay: Nobiletin, obesity-induced mice: body weight and ingestion amount; assay type: in vivo, mouse; conditions: for Body weight: HFD obesity-induced mice; for Ingestion amount, [Final Average]: average of 5 weeks; for Body weight, [Final gain]: gained amount during 0 to +5 weeks; for Ingestion amount: per mouse in 24 hrs
Description: (§1) Six weeks age of male C57BL/6 mice were preliminary reared for 1 week (−9 to −8 week); then classified into 4 groups (n=9 in each group). LFD was given to one group and HFD was given to other 3 groups for 8 weeks (−8 to +5 week). From 8 weeks (15 week age) to 13 weeks, each group was given the following agents per os for 5 weeks in everyday. In below, the LFD administration group was defined that they ingested LFD; the HFD administration group is defined that they ingested the HFD without nobiletin. The compositions of the LFD and HFD are the same as those used in the Example 3.
(§2) To both of the LFD administration group and the HFD administration group, 0.3% CMC aqueous solution was given at the amount of 0.01 mL/g body weight. […] The group to which nobiletin was given at the amount of 10 mg/kg/day was referred to as “No10 administration group; the abbreviated as HFD+No 10” and another group to which nobiletin was given at the amount of 100 mg/kg/day was referred to as “No 100 administration group; abbreviated as HFD+No 100”. The schedule of the feed ingestion and administration of the agent for the above-mentioned 4 groups were schematically shown in FIG. 12A.
In the table, [Final gain] means gained amount during 0 to +5 weeks. […] By this, it was shown that nobiletin has the effect to suppress the body weight gain after the obesity induction by ingesting the high fat diet.
The ingestion amount of each mouse was measured everyday from 1 to 8 day (0 week) in the beginning of the agent administration. The ingested amount in 24 hrs was measured per cage, and then the average ingestion amount (g) per mouse was calculated. The date of day 0 means that of the previous day of the administration beginning. After 2 weeks from the administration, it was measured twice a week. [Final average] means the average of 5 weeks.

GLUT4 protein = assay: Diabetes model mice: GLUT4 protein expression level (Western blotting); assay type: in vivo, mouse; conditions: ob/ob mice, nobiletin 200 mg/kg/day, Pioglitazone 30 mg/kg/day
Experimental: After finishing the experiment, the white adipose tissue and skeletal muscle were excised according to that described in the example 1, protein expression level of GLUT 4 were detected by using Western blotting method. The expression levels of GLUT4 protein were determined by using Na^+/K^+ ATPase α-1 protein as an internal reference.

[6] = test system: adipose cells of the white adipose tissue; assay: Diabetes model mice: size of adipose cells of the white adipose tissue; assay type: in vivo, mouse; conditions: 200 mg/kg of nobiletin
male C57BL/6 mice [7] = assay: Nobiletin, obesity-induced mice: tissue weight; assay type: in vivo, mouse; conditions: HFD obesity-induced mice
Description: as §1, §2

[8] = nobiletin 10 mg/kg/day p.o. 5 weeks
[9] = nobiletin 100 mg/kg/day p.o. 5 weeks
[10] = nobiletin 10 mg/kg/day p.o., HFD
[11] = nobiletin 100 mg/kg/day p.o., HFD
[12] = Western blotting, Vehicle = 1.00, 5 weeks

COc1ccc(-c2cc(=O)c3c(OC)c(OC)c(OC)c(OC)c3o2)cc1OC [nobiletin]
Blood glucose level (fasting) (C57BL/6J-ob/ob mice [1]; 0 week after administration): 175.61 ± 11.44 mg/dL | Blood glucose level (fasting) (C57BL/6J-ob/ob mice [1]; 2 weeks after administration): 169.22 ± 13.22 mg/dL | Blood glucose level (fasting) (C57BL/6J-ob/ob mice [1]; 5 weeks after administration): 148.46 ± 7.56 mg/dL | Adiponectin level in blood, times higher than solvent administration group (C57BL/6J-ob/ob mice [2]): not so high | adipose cell size compared with HFD group [3, 8]: not large difference | adipose cell size compared with HFD group [3, 9]: became smaller | Gene expression level (ratio), [L]G6Pase [4]: 0.29 ± 0.01 | Gene expression level (ratio), [L]PEPCK [4]: 0.34 ± 0.03 | Body weight (male C57BL/6 mice [5]; [8]): 33.14 ± 1.02 g | Body weight (male C57BL/6 mice [5]; nobiletin 10 mg/kg/day p.o., 0 weeks after administration): 31.07 ± 0.78 g | Body weight (male C57BL/6 mice [5]; nobiletin 10 mg/kg/day p.o., 1 week): 31.10 ± 0.72 g | Body weight (male C57BL/6 mice [5]; nobiletin 10 mg/kg/day p.o., 2 weeks): 32.10 ± 0.85 g | Body weight (male C57BL/6 mice [5]; nobiletin 10 mg/kg/day p.o., 3 weeks): 33.01 ± 1.01 g | Body weight (male C57BL/6 mice [5]; nobiletin 10 mg/kg/day p.o., 4 weeks): 32.58 ± 0.97 g | Body weight (male C57BL/6 mice [5]; [9]): 31.88 ± 0.68 g | Body weight (male C57BL/6 mice [5]; nobiletin 100 mg/kg/day p.o., 0 weeks after administration): 31.21 ± 0.60 g | Body weight (male C57BL/6 mice [5]; nobiletin 100 mg/kg/day p.o., 1 week): 29.93 ± 0.52 g | Body weight (male C57BL/6 mice [5]; nobiletin 100 mg/kg/day p.o., 2 weeks): 30.61 ± 0.60 g | Body weight (male C57BL/6 mice [5]; nobiletin 100 mg/kg/day p.o., 3 weeks): 31.62 ± 0.62 g | Body weight (male C57BL/6 mice [5]; nobiletin 100 mg/kg/day p.o., 4 weeks): 31.28 ± 0.59 g | Ingestion amount, [Final Average] (male C57BL/6 mice [5]; [10]): 2.58 ± 0.1 g | Ingestion amount, [Final Average] (male C57BL/6 mice [5]; [11]): 2.61 ± 0.08 g | Body weight, [Final gain] (male C57BL/6 mice [5]; [10]): 2.08 ± 0.69 g | Body weight, [Final gain] (male C57BL/6 mice [5]; [11]): 0.67 ± 0.37 g | Ingestion amount (male C57BL/6 mice [5]; day 0 (previous day of administration beginning), nobiletin 10 mg/kg/day group): 2.36 ± 0.04 g | Ingestion amount (male C57BL/6 mice [5]; day 0 (previous day of administration beginning), nobiletin 100 mg/kg/day group): 2.36 ± 0.04 g | Ingestion amount (male C57BL/6 mice [5]; day 1, nobiletin 10 mg/kg/day p.o., HFD): 2.28 ± 0.13 g | Ingestion amount (male C57BL/6 mice [5]; day 1, nobiletin 100 mg/kg/day p.o., HFD): 1.57 ± 0.09 g | Ingestion amount (male C57BL/6 mice [5]; day 2, nobiletin 10 mg/kg/day p.o., HFD): 1.85 ± 0.19 g | Ingestion amount (male C57BL/6 mice [5]; day 2, nobiletin 100 mg/kg/day p.o., HFD): 1.71 ± 0.13 g | Ingestion amount (male C57BL/6 mice [5]; day 3, nobiletin 10 mg/kg/day p.o., HFD): 1.85 ± 0.19 g | Ingestion amount (male C57BL/6 mice [5]; day 3, nobiletin 100 mg/kg/day p.o., HFD): 1.71 ± 0.13 g | Ingestion amount (male C57BL/6 mice [5]; day 4, nobiletin 10 mg/kg/day p.o., HFD): 2.27 ± 0.28 g | Ingestion amount (male C57BL/6 mice [5]; day 4, nobiletin 100 mg/kg/day p.o., HFD): 1.83 ± 0.15 g | Ingestion amount (male C57BL/6 mice [5]; day 5, nobiletin 10 mg/kg/day p.o., HFD): 1.78 ± 0.21 g | Ingestion amount (male C57BL/6 mice [5]; day 5, nobiletin 100 mg/kg/day p.o., HFD): 1.59 ± 0.20 g | Ingestion amount (male C57BL/6 mice [5]; day 6, nobiletin 10 mg/kg/day p.o., HFD): 2.36 ± 0.14 g | Ingestion amount (male C57BL/6 mice [5]; day 6, nobiletin 100 mg/kg/day p.o., HFD): 2.04 ± 0.09 g | Ingestion amount (male C57BL/6 mice [5]; day 7, nobiletin 10 mg/kg/day p.o., HFD): 2.99 ± 0.07 g | Ingestion amount (male C57BL/6 mice [5]; day 7, nobiletin 100 mg/kg/day p.o., HFD): 2.62 ± 0.12 g | Ingestion amount (male C57BL/6 mice [5]; day 8, nobiletin 10 mg/kg/day p.o., HFD): 2.12 ± 0.32 g | Ingestion amount (male C57BL/6 mice [5]; day 8, nobiletin 100 mg/kg/day p.o., HFD): 2.43 ± 0.03 g | Gene expression level (ratio), Skeletal muscle (GLUT4 protein) (GLUT4 protein; [12]): 6.32 | Gene expression level (ratio), White adipose tissue (GLUT4 protein) (GLUT4 protein; [12]): 1.75 | GLUT4 protein expression amount in the skeletal muscle, times higher than vehicle administration group (GLUT4 protein): about 6 times | GLUT4 protein expression level in the white adipose tissue, times higher than vehicle administration group (GLUT4 protein): 1.7 times | shrinking of enlarged adipose cells of the white adipose tissue [6]: fails to shrink the adipose cells | Tissue Weight, Kidney (male C57BL/6 mice [7]; [8]): 0.34 ± 0.02 g/100 g of body weight | Tissue Weight, Liver (male C57BL/6 mice [7]; [8]): 1.28 ± 0.08 g/100 g of body weight | Tissue Weight, White adipose tissue (male C57BL/6 mice [7]; [8]): 1.96 ± 0.28 g/100 g of body weight | Tissue Weight, White adipose tissue [Periphery of genitals] (male C57BL/6 mice [7]; [8]): 1.23 ± 0.19 g/100 g of body weight | Tissue Weight, White adipose tissue [Periphery of intestine] (male C57BL/6 mice [7]; [8]): 0.27 ± 0.04 g/100 g of body weight | Tissue Weight, White adipose tissue [Periphery of kidney] (male C57BL/6 mice [7]; [8]): 0.47 ± 0.07 g/100 g of body weight | Tissue Weight, Kidney (male C57BL/6 mice [7]; [9]): 0.35 ± 0.01 g/100 g of body weight | Tissue Weight, Liver (male C57BL/6 mice [7]; [9]): 1.40 ± 0.04 g/100 g of body weight | Tissue Weight, White adipose tissue (male C57BL/6 mice [7]; [9]): 1.52 ± 0.15 g/100 g of body weight | Tissue Weight, White adipose tissue [Periphery of genitals] (male C57BL/6 mice [7]; [9]): 0.92 ± 0.09 g/100 g of body weight | Tissue Weight, White adipose tissue [Periphery of intestine] (male C57BL/6 mice [7]; [9]): 0.20 ± 0.02 g/100 g of body weight | Tissue Weight, White adipose tissue [Periphery of kidney] (male C57BL/6 mice [7]; [9]): 0.36 ± 0.03 g/100 g of body weight
